{"source": "patent US7019029B2", "about": "“Skin whiteners containing hydroxytetronic acid derivatives” (priority 2000, dated 2006)", "test_system": "hyperpigmented skin areas of melasma patients", "assay": "Study in melasma patients: topical treatment of hyperpigmented skin areas", "assay_type": "in vivo, human", "conditions": "oil-in-water emulsion containing about 10% compound, twice daily for 5 to 7 days, 4 melasma patients, observed in all the patients", "description": "The efficacy of a preferred embodiment of the invention was tested in a clinical trial. An oil-in-water emulsion containing about 10% 4-diphenyl-2-hydroxytetronic acid was applied to various pigmented areas of the skin of 10 subjects twice daily. On normal pigmented skin types 2 and 3, visually apparent lightening was observed within 4 to 6 hours of application when compared to surrounding, untreated skin areas of the same subject. In another study, the hyperpigmented skin areas of 4 melasma patients were treated twice daily for 5 to 7 days.", "data": [{"compound": "O=C1OC(c2ccccc2)(c2ccccc2)C(O)=C1O", "note": "[4-diphenyl-2-hydroxytetronic acid, 3,4-dihydroxy-5-diphenyl-2(5H)-furanone]", "values": [{"measurement": "lightening of the pigmented lesions", "value": "Significant lightening"}]}]}
